Assay results reported in paper PMC4503722, “Novel Phenotypic Outcomes Identified for a Public Collection of Approved Drugs from a Publicly Accessible Panel of Assays” (PLoS ONE, 2015).

Key:
[1] = tested on: ECFC/ADSC co-culture cell nuclei number; conditions: for IC50: read-out: VEGF_ADSC\ECFC Angio Hoechst NucArea summarized IC50
[2] = tested on: endothelial tube formation in co-cultures of ECFCs and ADSCs treated with VEGF; assay: cells; assay type: cell-based, human; conditions: for IC50: read-out: VEGF_ADSC\ECFC Angio CD31 TubeArea summarized IC50

| Structure (SMILES) | VEGF_ADSC\ECFC Angio Hoechst NucArea IC50/EC50 [1] | VEGF_ADSC\ECFC Angio CD31 TubeArea IC50/EC50 [2] | IC50 [1] | IC50 [2] | also measured |
| --- | --- | --- | --- | --- | --- |
| CC(=O)C[C@H]1[C@H](O[C@H]2[C@H](OC(C)C(=O)N[C@@H](C)C(=O)N[C@H](CCC(=O)N[C@@H](CCCCN)C(=O)N[C@H](C)C(=O)O)C(N)=O)[C@@H](NC(=O)O)C(O)O[C@@H]2CO)O[C@H](CO)[C@@H](O)[C@@H]1O (stereo partly shown) [NCGC00181761-01] | > 10 µM | > 10 µM |  |  |  |
| O=C(O)C1CCC1 [NCGC00253667-01] |  |  | > 10 µM | > 10 µM |  |
| C/C=C(/C(=C/C)c1ccc(OC(C)=O)cc1)c1ccc(OC(C)=O)cc1 [NCGC00253696-01] |  |  | > 10 µM | > 10 µM |  |
| C#C[C@]1(O)CC[C@H]2[C@@H]3CCC4=CCCC[C@@H]4[C@H]3C(=C)C[C@@]21CC [NCGC00167449-02] | 9.571 µM | > 10 µM |  |  |  |
| CCOC(=O)C1=C(C)NC(C)=C(C(=O)OCC)C1c1ccccc1/C=C/C(=O)OC(C)(C)C [NCGC00263529-01] |  |  |  |  | IC50/EC50, VEGF_ADSC\ECFC Angio Hoechst NucArea (assay number 3) [1]: > 10 µM; IC50/EC50, VEGF_ADSC\ECFC Angio CD31 TubeArea (assay number 2) [2]: > 10 µM |
| COc1ccccc1OCCNCC(O)COc1cccc2[nH]c3ccccc3c12 (stereo not shown) [NCGC00167832-06] | > 10 µM | > 10 µM |  |  |  |
| Oc1ccc(O)cc1 [NCGC00015523-13] |  |  | > 10 µM | > 10 µM |  |
| NC(=O)c1cccnc1 [NCGC00093354-05] |  |  | > 10 µM | > 10 µM |  |
| COc1ccc(/C=N/NC(=O)c2ccncc2)cc1OC [NCGC00160656-02] |  |  | > 10 µM | > 10 µM |  |
| O=C(CCN1CCC(c2ccccc2)C1)c1ccc2c(c1)OCCO2 (stereo not shown) [NCGC00160665-02] | > 10 µM | > 10 µM |  |  |  |
| CCOC(=O)[C@H](CCc1ccccc1)N[C@@H](C)C(=O)N1Cc2cc(OC)c(OC)cc2C[C@H]1C(=O)O.Cl [NCGC00263546-01] | > 10 µM | > 10 µM |  |  |  |
| CC[C@]12CCCN3CCc4c(n(c5ccccc45)C(=O)C1)[C@@H]32 [NCGC00262533-02] | > 10 µM | > 10 µM |  |  |  |
| Oc1ccc2[nH]cc(CCCCN3CC=C(c4ccccc4)CC3)c2c1 [NCGC00025216-03] | > 10 µM | 4.0367 µM |  |  |  |
| Cc1cccc(C)c1NC(=O)CN1CCN(CCCC(c2ccc(F)cc2)c2ccc(F)cc2)CC1 [NCGC00016627-04] |  |  |  |  | IC50/EC50, VEGF_ADSC\ECFC Angio Hoechst NucArea (assay number 3) [1]: 9.37 µM; IC50/EC50, VEGF_ADSC\ECFC Angio CD31 TubeArea (assay number 2) [2]: > 10 µM |
| CN(C)CCOC1=Cc2ccccc2Sc2ccc(Cl)cc21 [NCGC00182081-04] | > 10 µM | > 10 µM |  |  |  |
| CN(C)C(=O)Oc1cccc([N+](C)(C)C)c1.[Br-] [NCGC00015730-11] | > 10 µM | > 10 µM |  |  |  |
| OCCN1CCN(CCCN2c3ccccc3Sc3ccc(Cl)cc32)CC1 [NCGC00015826-13] |  |  | > 10 µM | > 10 µM |  |
| CCCCc1oc2ccc(NS(C)(=O)=O)cc2c1C(=O)c1ccc(OCCCN(CCCC)CCCC)cc1 [NCGC00188863-02] | 7.561 µM | 2.754 µM |  |  |  |
| Cc1[nH]cnc1C[C@H]1CCc2c(C)c3ccccc3n2C1=O [NCGC00249415-01] | > 10 µM | > 10 µM |  |  |  |
| O=C1CC[C@H](C(=O)N2CCCCC2)N1 [NCGC00182992-01] | > 10 µM | > 10 µM |  |  |  |
| S=C=Nc1ccc(N=C=S)cc1 [NCGC00166077-02] |  |  |  |  | IC50/EC50, VEGF_ADSC\ECFC Angio Hoechst NucArea (assay number 3) [1]: > 10 µM; IC50/EC50, VEGF_ADSC\ECFC Angio CD31 TubeArea (assay number 2) [2]: > 10 µM |
| COc1cc(/C=C2\CCC/C(=C\c3ccc(O)c(OC)c3)C2=O)ccc1O [NCGC00164486-04] |  |  | 6.98 µM | > 10 µM |  |
| O=NN(CCCl)C(=O)NC1CCCCC1 [NCGC00167466-02] | > 10 µM | > 10 µM |  |  |  |
